Experimental data published in patent publication US20190352276A1, “INHIBITORS OF BRUTON'S TYROSINE KINASE” (Joint Stock Company "Biocad", priority 2016, published 2019).

How the values were obtained:
[1] = test system: Z-138 (mantle cell lymphoma); assay: Antiproliferative activity, Z-138 cells (Alamar Blue); format: cell-based; settings: Homo sapiens, Table 10, 72 h, average of several tests
Procedure: (§1) Antiproliferative activity of BTK inhibitors was measured in cell-based bioassay on B-cells cultures: Mino (mantle cell lymphoma, ATCC® CRL-3000™), Z-138 (mantle cell lymphoma, ATCC® CRL-3001™) and DOHH2 (follicular lymphoma, Creative Bioarray CSC-C0219) using cell viability reagent Alamar Blue (Invitrogen, #DAL 1100). Cells were cultured in 10% FB S-supplemented (HyClone, #SH3008803/Gibco, #16140-071) RPMI-1640 (PanEco, #S330p) for at least 1 passage after thawing, washed with PBS and passaged in 96-well culture plates (Corning, #3599) with growth medium with 10% FBS (HyClone, #SH3008803/Gibco, #16140-071) and antibiotic (50 μg/ml of gentamicin (Biolot, #1.3.16))≈3*10^4 cells in 50 μl of medium per well.
(§2) The compounds were dissolved in DMSO and diluted with the assay medium to final concentrations ranging from […]. 150 μl of each diluted compound were then added to each well (final concentration of DMSO was less than 1%) and incubated at 37° C. in an incubator under 5% of CO2 for 72 h. After incubation, 20 μl of Alamar Blue reagent (Invitrogen, #DAL1100) were added to each well. The plates were shaked on an orbital shaker (Biosan, Latvia) and then incubated for 14-16 hours at 37° C. in the incubator.
(§3) The number of living cells were estimated, measuring the fluorescence signal at the excitation wavelength (REx) of 540 nm and the emission wavelength (λEm) of 590 nm on a microplate reader (Tecan Infinite M200Pro, Switzerland).
(§4) For each compound, IC50 was calculated using Magellan 7.2 software (Tecan, Switzerland) approximating experimental points by four-parameter logistic model with the optimization by Levenberg-Marquardt.

[2] = Chemical stability in artificial gastric fluid (SGF without enzymes); settings: 10 μM in SGF without enzymes, pH=1.4, 37° C.
Procedure: The initial candidate solution (10 mM in DMSO) was diluted with the working solution of SGF to the concentration of 10 μm (test solution). The test solution was incubated in a dry block heater at 37° C. We determined peak areas of the compounds corresponding to the start of the test (before incubating) and the end of the test (after incubating in a dry block heater at 37° C.) by HPLC using Agilent1200 chromatograph (Agilent, USA). We used gradient elution (1 mL/min flow rate). We determined amount of substance in the sample in % after incubation.
We evaluated the stability of the compounds.

[3] = General cytotoxicity on HepG2 cells (CC50; therapeutic index CC50 HepG2/IC50 Mino); format: cell-based; settings: human, HepG2 cells (hepatocellular carcinoma); Table 10; 72 hours, Alamar Blue; average of several tests
Procedure: (§5) The CC50 values were determined in the test for General cytotoxicity on HepG2 cells (hepatocellular carcinoma, ATCC® HB-8065™). 2*10^4 cells (in 50 μl) per well were seeded in 96-well plates (Corning, #3599) in DMEM medium (PanEco, #S420p), after 24 h of incubation 150 μl of candidate compounds were added to each well in the range of final concentrations from 200 μM to 4 μM and the plate was incubated in a total volume of 200 μl for 72 hours. Viability of the cells was assessed using Alamar Blue dye (Invitrogen, #DAL 1100). CC50 was determined similarly (table 10).
(§6) The relationship between toxic (CC50) and a therapeutic (IC50) effects of the dose is the therapeutic index, which can be expressed as the ratio between CC50 (HepG2) (general cytotoxicity of the candidate) and IC50 (Mino) (antiproliferative activity on the target cells): […]

[4] = test system: HepG2 cells (hepatocellular carcinoma); assay: as above; format: cell-based; settings: Table 10; therapeutic index
Procedure: as §5, §6

[5] = test system: Mino (mantle cell lymphoma); assay: Antiproliferative activity, Mino cells (Alamar Blue); format: cell-based; settings: Homo sapiens, Table 10, 72 h, average of several tests
Procedure: as §1, §2, §3, §4

Row | Compound | IC50 [1] [µM] | Amount of substance in the sample in % (chemical stability) [2] [%] | CC50 at 72 h [3] [µM] | CC50 (HepG2)/IC50 (Mino) [4] | IC50 [5] [µM]
1 | C=CC(=O)N1CCC[C@@H](n2nc(-c3ccc(-n4ccc(=O)cc4)nc3)c3cncc(Cl)c32)C1 [BCD-BTK-56, (R)-5′-(1-(1-acryloylpiperidin-3-yl)-7-chloro-1H-pyrazolo[4,3-c]pyridin-3-yl)-4H-[1,2′-bipyridin]-4-one] | 30.5 | 99.0 | > 50 | >1.54 | 32.5
2 | C=CC(=O)N1CCC[C@@H](n2nc(-c3cnc(-n4ccc(=O)cc4)nc3)c3c(N)ncc(Cl)c32)C1 [BCD-BTK-74, (R)-1-(5-(1-(1-acryloylpiperidin-3-yl)-4-amino-7-chloro-1H-pyrazolo[4,3-c]pyridin-3-yl)pyrimidin-2-yl)pyridin-4(1H)-one] | 17.6 | 98.7 | 100 | 4.57 | 21.9
3 | C=CC(=O)N1CCC[C@@H](n2nc(-c3ccc(-n4ccc(=O)cc4)nc3)c3c(N)ncc(Cl)c32)C1 [BCD-BTK-76, (R)-5′-(1-(1-acryloylpiperidin-3-yl)-4-amino-7-chloro-1H-pyrazolo[4,3-c]pyridin-3-yl)-4H-[1,2′-bipyridin]-4-one] | 19.6 | 99.7 | > 100 | >6.27 | 16
4 | C=CC(=O)Nc1cc2c(-c3ccc(-n4ccc(=O)cc4)cc3)nn([C@@H]3CCCN(C(=O)C=C)C3)c2nc1C [BCD-BTK-117, (R)-N-(1-(1-acryloylpiperidin-3-yl)-6-methyl-3-(4-(4-oxopyridin-1(4H)-yl)phenyl)-1H-pyrazolo[3,4-b]pyridin5-yl)acrylamide] | 23.4 | 99.7 | > 50 | >3.76 | 13.3
5 | C=CC(=O)Oc1cc(C#N)c2c(c1)c(-c1ccc(-n3ccc(=O)cc3)cc1)nn2[C@@H]1CCCN(C(=O)C=C)C1 [BCD-BTK-118, (R)-1-(1-acryloylpiperidin-3-yl)-7-cyano-3-(4-(4-oxopyridin-1(4H)-yl)phenyl)-1H-indazol-5-yl acrylate] | 7.84 | 95.4 | 66.2 | 4.83 | 13.7
6 | C=CC(=O)N1CCC[C@@H](n2nc(-c3ccc(-n4ccc(=O)cc4)cc3)c3cc(N)c(C)nc32)C1 [BCD-BTK-119, (R)-1-(4-(1-(1-acryloylpiperidin-3-yl)-5-amino-6-methyl-1H-pyrazolo[3,4-b]pyridin-3-yl)phenyl) pyridin-4(1H)-one] | 25.5 | 100.0 | > 100 | >8.16 | 12.3
7 | C=CC(=O)N1CCC[C@@H](n2nc(-c3ccc(-n4ccc(=O)cc4)cc3)c3cc(O)cc(C#N)c32)C1 [BCD-BTK-122, (R)-1-(1-acryloylpiperidin-3-yl)-5-hydroxy-3-(4-(4-oxopyridin-1(4H)-yl)phenyl)-1H-indazol-7-carbonitrile] | 36.5 | 97.5 | > 100 | >2.81 | 35.6
8 | C=CC(=O)Oc1cnc2c(c(-c3ccc(-n4ccc(=O)cc4)cc3)nn2[C@@H]2CCCN(C(=O)C=C)C2)c1Cl [BCD-BTK-136, (R)-1-(1-acryloylpiperidin-3-yl)-4-chloro-3-(4-(4-oxopyridin-1(4H)phenyl)-1H-pyrazolo[3,4-b]pyridin-5-yl acrylate] | > 50 | 89.9 | > 100 | >7.97 | 12.5
9 | C=CC(=O)N1CCC[C@@H](n2nc(-c3ccc(Oc4ccncc4)cc3)c3cc(O)cc(C#N)c32)C1 [BCD-BTK-137] | 25.6 | 94.3 | 65.9 | 5.70 | 11.6
10 | C=CC(=O)N1CCC[C@@H](n2nc(-c3ccc(Oc4ccncc4)cc3)c3cncc(C(N)=O)c32)C1 [BCD-BTK-140, (R)-1-(1-acryloylpiperidin-3-yl)-3-(4-(pyridin-4-yloxy)phenyl)-1H-pyrazolo[4,3-c]pyridin-7-carboxamide] | > 50 | 99.4 | > 100 | >5.93 | 16.9
11 | C=CC(=O)N1CCC[C@@H](n2nc(-c3ccc(C(=O)Nc4cc(C(F)(F)CC)ccn4)cc3)c3cncc(C#N)c32)C1 [BCD-BTK-219, 4-{7-cyano-1-[1-(prop-2-enoyl)piperidin-3-yl]-1H-pyrazolo[4,3-c]pyridin-3-yl}-N-[4-(1,1-difluoropropyl)pyridin-2-yl] benzamide] | ~50 | 96.7 | > 100 | >9.95 | 10.1
12 | C=CC(=O)N1CCC[C@@H](n2nc(-c3ccc(C(=O)Nc4cc(C(C)(F)F)ccn4)cc3)c3cncc(C#N)c32)C1 [BCD-BTK-224, 4-{7-cyano-1-[(3R)-1-(prop-2-enoyl)piperidin-3-yl]-1H-pyrazolo[4,3-c]pyridin-3-yl}-N-[4-(1,1-difluoroethyl)pyridin-2-yl]benzamide] | > 50 | 100 | 73.1 | 6.63 | 11
13 | C=CC(=O)N1CCC[C@@H](n2nc(-c3ccc(Oc4ccncc4C(N)=O)cc3)c3cncc(F)c32)C1 [BCD-BTK-246, (R)-4-(4-(1-(1-acryloylpiperidin-3-yl)-7-fluoro-1H-pyrazolo[4,3-c]pyridin-3-yl)phenoxy)nicotinamide] | 23.7 | 100 | > 100 | >3.09 | 32.4
14 | C=CC(=O)N1CC(Cn2nc(-c3ccc(Oc4ccncc4)cc3)c3cncc(Cl)c32)C1 [BCD-BTK-264, 1-(3-((7-chloro-3-(4-(pyridin-4-yloxy)phenyl)-1H-pyrazolo[4,3-c]pyridin-1-yl)methyl)azetidin-1-yl)prop-2-en-1-one] | 14.3 | 97.8 | 10.5 | 2.13 | 4.92
15 | CC#CC(=O)N1CC[C@H](n2nc(-c3ccc(Oc4ccncc4)cc3)c3cncc(Cl)c32)C1 [BCD-BTK-270, (S)-1-(3-(7-chloro-3-(4-(pyridin-4-yloxy)phenyl)-1H-pyrazolo[4,3-c]pyridin-1-yl)pyrrolidin-1-yl)but-2-yn-1-one] | 14.3 | 99.1 | 23.4 | 3.45 | 6.79
16 | C=CC(=O)N1CC[C@@H](Cn2nc(-c3ccc(C(=O)Nc4ccccn4)cc3)c3cncc(Cl)c32)C1 [BCD-BTK-284, (R)-4-(1-((1-acryloylpyrrolidin-3-yl)methyl)-7-chloro-1H-pyrazolo[4,3-c]pyridin-3-yl)-N-(pyridin-2-yl)benzamide] | 115 | 100 | > 100 | >3.59 | 27.9
